Results taken from patent US8637237B2, “Methods, compositions, and systems for the identification of species-specific or developmental stage-specific insecticides” (The University of North Carolina at Greensboro, priority 2003, dated 2014).

Legend:
[1] = target: T1, GRdEcR/RXR (Drosophila melanogaster, UniProt P34021, E261P/P331L/Q260P/V259R); assay: GRdEcR (GEcEc) chimera with RXR, (EcRE)5-ΔMTV reporter in CHO cells; assay type: cell-based
T1 construct: ligation of a Not I-Bam HI fragment containing the DBD and LBD of a modified EcR cDNA, EcRnx; expressed in transfected cells; host or cells: CHO
T1 sequence (P34021 259-878 V259R/Q260P/E261P/P331L limits assumed): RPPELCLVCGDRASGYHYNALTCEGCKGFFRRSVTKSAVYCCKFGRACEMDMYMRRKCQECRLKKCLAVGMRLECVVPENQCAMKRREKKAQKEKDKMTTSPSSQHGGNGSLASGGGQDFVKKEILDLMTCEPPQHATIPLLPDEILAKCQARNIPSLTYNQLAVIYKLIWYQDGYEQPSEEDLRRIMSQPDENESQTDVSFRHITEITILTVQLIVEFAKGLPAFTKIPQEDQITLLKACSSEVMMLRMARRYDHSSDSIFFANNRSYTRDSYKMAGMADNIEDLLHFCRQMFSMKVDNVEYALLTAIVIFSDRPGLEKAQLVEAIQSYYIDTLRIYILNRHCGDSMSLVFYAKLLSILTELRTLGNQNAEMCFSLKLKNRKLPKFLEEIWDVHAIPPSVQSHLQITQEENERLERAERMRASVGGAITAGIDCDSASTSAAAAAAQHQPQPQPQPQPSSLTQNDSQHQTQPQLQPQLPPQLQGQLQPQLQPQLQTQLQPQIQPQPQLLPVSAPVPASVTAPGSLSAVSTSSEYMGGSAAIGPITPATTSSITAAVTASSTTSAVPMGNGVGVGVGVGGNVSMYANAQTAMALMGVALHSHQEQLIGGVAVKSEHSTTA
T1 sequence (P28700 1-467 partner): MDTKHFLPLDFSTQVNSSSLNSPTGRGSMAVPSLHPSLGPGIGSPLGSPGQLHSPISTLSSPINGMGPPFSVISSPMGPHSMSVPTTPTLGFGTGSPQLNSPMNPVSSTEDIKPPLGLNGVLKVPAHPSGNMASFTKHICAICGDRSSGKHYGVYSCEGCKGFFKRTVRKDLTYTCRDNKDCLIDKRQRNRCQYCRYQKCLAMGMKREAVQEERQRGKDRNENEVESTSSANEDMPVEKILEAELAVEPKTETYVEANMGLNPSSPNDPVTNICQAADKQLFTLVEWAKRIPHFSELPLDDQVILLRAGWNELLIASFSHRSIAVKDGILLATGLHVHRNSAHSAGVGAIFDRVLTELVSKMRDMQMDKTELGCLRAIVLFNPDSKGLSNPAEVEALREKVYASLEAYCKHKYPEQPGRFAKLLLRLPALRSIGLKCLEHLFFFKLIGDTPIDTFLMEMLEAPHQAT
Procedure: (§1) These experiments employed a mammalian cell culture system using Chinese hamster ovary cells (CHO) to evaluate the transcriptional function of Drosophila melanogaster EcR and USP using methods described previously (U.S. Patent Application Publication No: 2005/0049230; Henrich et al, 2003). Cells were seeded in 6-well polypropylene culture plates (Falcon) with 10^5 cells per well on the day prior to transfection. Transfection was subsequently performed using either calcium phosphate (Kitareewan et al., 1996, Mol. Biol. Cell, 7:1153-1196) or a GenePorter reagent (Gene Therapy Systems, Inc; San Diego, Calif.) following manufacturer's protocols. Each well received 1.25 μg of (EcRE)5-ΔMTV-CAT (five copies of the hsp27 EcRE inserted into an mouse mammary tumor virus (MTV) promoter upstream of the chloramphenicol acetyltransferase (CAT) gene) or (EcRE)5-ΔMTV-LUC (the same promoter attached to firefly luciferase), 1.25 μg of pCH111 (SV40 early promoter linked to the β-galactosidase gene) to normalize CAT activity, and 0.25 μg of each expression plasmid (EcR, FXR, RXR, USP) that was tested. The cells were incubated with plasmid DNA for seven hours and then washed with 1×PBS. Muristerone A (murA; Alexis Biochemicals) or 20-hydroxyecdysone (20E; Sigma) dissolved in ethanol to a concentration of 10 mM was diluted as necessary to the final assay concentration (FAC) in 2 ml of fresh incubation medium that was then applied to the cells. Similarly, JHIII (Sigma) was dissolved in dimethyl sulfoxide (DMSO) to a concentration of […] and diluted into the incubation medium to its final assay concentration (20, 40, 80, 160 μM). […] A corresponding volume of ethanol and DMSO were added to control cells for all experiments. For all experiments, the cells were allowed to incubate with the medium for 24 hours before collection and cell lysates were prepared by described methods (Kitareewan et al., 1996). Both β-galactosidase and CAT reporter activity were measured based on previously used methods (Kitareewan et al, 1996). Luciferase assays using luciferrin followed the specifications of the manufacturer.
(§2) Transcriptional activity, measured as ^14C-chloramphenicol counts (for measuring CAT activity) or relative luciferase activity (RLU) was quantified for each cell lysate. The counts were then normalized by adjusting for differences in β-galactosidase activity, since β-galactosidase expression is controlled by a constitutive promoter and provides an estimate of cell mass. Data were normalized as fold-induction based on differences in reporter gene activity between hormonally treated and control cells.
(§3) In an initial series of studies, a GRdEcR chimera that consists of the rat glucocorticoid receptor (GR) activation domain attached to the EcR DBD and LBD (FIG. 1) was cotransfected along with mRXRα into CHO cells. The response of transfected cells to murA was measured using a (EcRE)5-ΔMTV-CAT reporter plasmid that carries five tandem repeats of the hsp27 EcRE linked to the MTV (mouse mammary tumor virus) promoter and the chloramphenicol acetyltransferase gene (CAT).
(§4) The prominent candidate for this JH-responsive macromolecule in insects is the structurally-related ecdysone receptor (EcR). Like FXR, EcR heterodimerizes with RXR and binds to the hsp27 ecdysone-responsive DNA element (Forman et al., 1995), but distinctively activates transcription in response to muristerone A (MurA or MUR), a synthetic ecdysone (Yao et al., 1992). […] In the experiments shown in FIG. 15A, muristerone A (MUR) was added at the indicated doses in ethanol vehicle, and increasing amounts of JH III (12, 25, or 50 μM) were added (underlying triangles). Numbers over bars indicate the ratio of the GEcEc-dependent activity produced by 50 μM JH III in the presence of the indicated dose of MUR to the activity produced by MUR alone. Relative light units (RLU) from firefly luciferase in cell lysates are expressed relative to renilla luciferase (Promega).

[2] = target: T2, FXR (Rattus norvegicus, UniProt Q62735); assay: cell-based
T2 sequence (Q62735 1-469): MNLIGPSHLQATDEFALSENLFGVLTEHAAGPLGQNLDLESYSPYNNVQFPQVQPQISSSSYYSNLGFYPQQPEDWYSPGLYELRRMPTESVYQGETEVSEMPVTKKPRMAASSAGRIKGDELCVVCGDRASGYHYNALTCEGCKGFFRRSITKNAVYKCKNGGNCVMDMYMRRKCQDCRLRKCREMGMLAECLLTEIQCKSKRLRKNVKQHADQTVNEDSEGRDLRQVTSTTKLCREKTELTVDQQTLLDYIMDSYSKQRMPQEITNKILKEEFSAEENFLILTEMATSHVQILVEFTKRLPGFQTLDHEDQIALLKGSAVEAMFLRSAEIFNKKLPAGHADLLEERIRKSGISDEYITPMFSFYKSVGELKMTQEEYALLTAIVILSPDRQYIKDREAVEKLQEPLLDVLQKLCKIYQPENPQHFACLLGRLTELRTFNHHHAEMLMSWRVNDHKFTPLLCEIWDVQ
T2 sequence (P28700 1-467 partner): T1 sequence (P28700 1-467 partner)
Procedure: as §1, §2
In these experiments, candidate juvenoids were tested for their ability to activate FXR mediated transcription by transfecting Chinese hamster ovary (CHO) cells using the FXR plasmid, mouse RXRα, and the ΔMTV-(EcRE)5-CAT reporter as described herein. An RXR-dependent CRBPII-CAT reporter plasmid was employed in parallel assays to discern activators specific for this receptor.

[3] = target: T3, GRdEcR/RXR (Drosophila melanogaster, UniProt P34021); assay: GRdEcR (GEcEc) chimera with RXR, (EcRE)5-ΔMTV reporter in CHO cells; assay type: cell-based; settings: 25 μM insecticide; 10 nM MUR
T3 construct: ligation of a Not I-Bam HI fragment containing the DBD and LBD of a modified EcR cDNA, EcRnx; expressed in transfected cells; host or cells: CHO
T3 sequence (P34021 259-878 V259R/Q260P/E261P/P331L limits assumed): T1 sequence (P34021 259-878 V259R/Q260P/E261P/P331L limits assumed)
T3 sequence (P28700 1-467 partner): T1 sequence (P28700 1-467 partner)
Procedure: as §1, §2, §3, §4

[4] = tested on: insect; settings: from Schneiderman and Gilbert, Science 143; cited from earlier work
[5] = final dose of 50 ∝M, 1 = induction less than 2-fold below cytotoxic doses

C[C@H](CCC(=O)O)[C@H]1CC[C@H]2[C@@H]3[C@H](O)C[C@@H]4C[C@H](O)CC[C@]4(C)[C@H]3CC[C@]12C [CDCA, chenodeoxycholic acid]
induction of GEcEc ([1]; data not shown): did not induce

CCOP(=S)(OCC)Oc1nc(Cl)c(Cl)cc1Cl [chlorpyrifos]
FXR-dependent activity, induction ([2]; 25 μM): potencies and efficacies like farnesol | GEcEc-dependent activity, insecticide plus MUR over MUR alone [3]: nine times

CCOP(=S)(OCC)Oc1ccc2c(C)c(Cl)c(=O)oc2c1 [coumaphos]
GEcEc-dependent activity, insecticide plus MUR over MUR alone [3]: between two and three times

CCOP(=S)(OCC)Oc1cc(C)nc(C(C)C)n1 [diazinon]
GEcEc-dependent activity, insecticide plus MUR over MUR alone [3]: between two and three times

CC(C)=CCCC(C)=CCCC(C)=CC=O [farnesal]
JH ACTIVITY (units/g) [4]: 32 units/g | FXR-dependent CAT activity, induction ([2]; 50 μM): 2 fold | FXR ACTIVITY (fold-induction) [2, 5]: 2 fold-induction

CC(C)=CCC/C(C)=C/CC/C(C)=C/CO [farnesol, all-trans farnesol]
JH ACTIVITY (units/g) [4]: 140 units/g | increase in GEcEc activity over that provided by MUR alone ([1]; 45 μM farnesol with MUR): 4 fold

CC(=O)OCC=C(C)CCC=C(C)CCC=C(C)C [farnesyl acetate]
JH ACTIVITY (units/g) [4]: 5.4 units/g

CC(C)=CCC/C(C)=C/CO [geraniol]
JH ACTIVITY (units/g) [4]: 0 units/g | FXR-dependent activity, induction ([2]; dose not stated): neither the monoterpenes linalool (200 μM) nor geraniol were effective | FXR ACTIVITY (fold-induction) [2, 5]: 1 fold-induction

CC(C)CCCC(C)CCCC(C)CCO (stereo not drawn) [hexahydrofarnesol]
JH ACTIVITY (units/g) [4]: 0 units/g

C=CC(C)(O)CCCC(C)CCCC(C)CCCC(C)C (stereo not drawn) [isophytol]
JH ACTIVITY (units/g) [4]: 0 units/g

C=CC(C)(O)CCC=C(C)C (stereo not drawn) [linalool]
JH ACTIVITY (units/g) [4]: 0.08 units/g

CC1(C)C(C=C(Cl)Cl)C1C(=O)OCc1cccc(Oc2ccccc2)c1 (stereo not drawn) [permethrin]
GEcEc-dependent activity, insecticide plus MUR over MUR alone [3]: between two and three times

C/C(=C\CO)CCC[C@H](C)CCC[C@H](C)CCCC(C)C [phytol]
JH ACTIVITY (units/g) [4]: 32 units/g | FXR-dependent CAT activity, induction ([2]; 50 μM): three times | FXR ACTIVITY (fold-induction) [2, 5]: 3 fold-induction

c1cc2c(cc1[C@H]1OC[C@H]3[C@@H]1CO[C@@H]3c1ccc3c(c1)OCO3)OCO2 [sesamin]
FXR-dependent activity, induction ([2]; 100 μM): 12 fold | FXR ACTIVITY (fold-induction) ([2]; dose 100 μM, 1 = no increase over vehicle): 12 fold-induction | potentiation of MUR-inducible GEcEc-dependent activity ([1]; 25 μM test compound, 0.2 μM muristerone A): between two and four times

CC(C)=CCC/C(C)=C/CC/C(C)=C/CC/C(C)=C/CC/C(C)=C/CC/C(C)=C/CC/C(C)=C/CC/C(C)=C/CC/C(C)=C/CO [solanesol]
JH ACTIVITY (units/g) [4]: 0.05 units/g

CC1=CCC(C(C)(C)O)CC1 (stereo not drawn) [α-terpineol]
FXR-dependent activity, induction ([2]; 800 μM): two-fold | FXR ACTIVITY (fold-induction) ([2]; dose 400 μM): 402 fold-induction

C[C@H]1[C@H](C)CC[C@]2(C)CC[C@]3(C)C(=CC[C@@H]4[C@@]5(C)CC[C@@H](O)[C@](C)(C(=O)O)[C@@H]5CC[C@]43C)[C@H]12 [β-boswellic acid]
FXR-dependent activity, induction ([2]; 25 μM): 11 fold | FXR ACTIVITY (fold-induction) ([2]; dose 25 μM): 11 fold-induction

CC(=O)/C=C/C1=C(C)CCCC1(C)C [β-ionone]
FXR ACTIVITY (fold-induction) ([2]; dose 150 μM): 10 fold-induction

CC(C)=CCC/C(C)=C/CC/C(C)=C/CC[C@]1(C)CCc2cc(O)c(C)c(C)c2O1 [γ-tocotrienol]
FXR ACTIVITY (fold-induction) ([2]; dose 20 μM, 1 = no increase over vehicle): 1 fold-induction

aroclor 1254
FXR-dependent CAT activity, induction ([2]; 5 μM): 5 fold

geranyl linalool
JH ACTIVITY (units/g) [4]: 0.14 units/g

precocene
inhibition of FXR-dependent activity in the CHO cell-based assay [2]: did not inhibit | GEcEc-dependent activity, insecticide plus MUR over MUR alone [3]: between two and three times

toxaphenes
FXR-dependent CAT activity, induction ([2]; 5 μM): 9 fold
